This note sets out measurements from patent US11584714B2 (priority 2018, dated 2023).

Holding throughout (format): biochemical
Test [1] deals with mMASP-2 (Mus musculus (Mouse), UniProt Q91WP0). Description: Enzymatic inhibition of mMASP-2. The following applies: read-out: mMASP-2 Ki.
Test [2] concerns the target human α-thrombin (Homo sapiens (Human), UniProt P00734). In words: Enzymatic assay for thrombin (Boc-VPR-AMC substrate).
For test [3], the target named is MASP-2 (CCP1-CCP2-SP) (Homo sapiens (Human), UniProt O00187). In words: biochemical. The conditions noted are these: for MASP-2 vs. thrombin selectivity: selectivity for MASP-2 inhibition versus thrombin.

Broadly, the Ki is the equilibrium dissociation constant of an inhibitor or competing ligand from its target.

Structures can show the parent of a compound that is named as a salt. Where two headings read alike, the source gives them in different places.

Sequence of MASP-2 (CCP1-CCP2-SP) (O00187 445-686): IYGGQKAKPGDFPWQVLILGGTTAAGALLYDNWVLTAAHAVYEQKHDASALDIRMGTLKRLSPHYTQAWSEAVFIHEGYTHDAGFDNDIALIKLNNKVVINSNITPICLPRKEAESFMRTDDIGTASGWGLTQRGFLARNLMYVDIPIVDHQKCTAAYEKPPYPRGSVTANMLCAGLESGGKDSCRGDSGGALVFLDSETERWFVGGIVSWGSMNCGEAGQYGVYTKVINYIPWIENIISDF
Sequence of mMASP-2 (Q91WP0 20-685): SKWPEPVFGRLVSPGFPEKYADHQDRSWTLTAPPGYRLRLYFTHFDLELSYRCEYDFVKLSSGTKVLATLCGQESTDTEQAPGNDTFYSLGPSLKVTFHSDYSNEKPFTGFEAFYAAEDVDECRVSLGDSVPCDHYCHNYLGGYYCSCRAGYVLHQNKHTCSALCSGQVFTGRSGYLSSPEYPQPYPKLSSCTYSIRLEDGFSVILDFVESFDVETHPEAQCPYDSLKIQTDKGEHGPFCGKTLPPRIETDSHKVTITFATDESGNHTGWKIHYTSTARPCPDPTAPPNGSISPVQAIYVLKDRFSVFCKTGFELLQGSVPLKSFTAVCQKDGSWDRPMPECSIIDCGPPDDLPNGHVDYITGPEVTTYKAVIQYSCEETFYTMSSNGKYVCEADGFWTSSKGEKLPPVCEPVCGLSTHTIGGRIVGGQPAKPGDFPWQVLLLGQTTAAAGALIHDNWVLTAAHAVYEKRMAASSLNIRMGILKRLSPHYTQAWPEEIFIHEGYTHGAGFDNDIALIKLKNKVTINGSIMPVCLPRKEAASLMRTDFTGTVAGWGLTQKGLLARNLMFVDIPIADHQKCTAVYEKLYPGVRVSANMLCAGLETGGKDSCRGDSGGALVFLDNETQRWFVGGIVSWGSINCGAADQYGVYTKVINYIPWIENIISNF

`Cc1nc(N)ccc1CNC(=O)[C@H](C)NC(=O)[C@H]1C[C@H](Cc2nc3cc(Cl)ccc3s2)CN1` [compound 1460, (2R,4R)—N—((S)-1-(((6-Amino-2-methylpyridin-3-yl)methyl)amino)-1-oxopropan-2-yl)-4-((5-chlorobenzo[d]thiazol-2-yl)methyl)pyrrolidine-2-carboxamide Di-trifluoroacetate salt]: the Ki in test [1] was < 500 nM; in test [2] (read-out: Thrombin Ki), > 25 µM; in test [3] (read-out: MASP-2 Ki) it was < 500 nM. Besides, the “MASP-2 vs. thrombin selectivity” value in test [3] is “**** (≥100-fold)”.

With `Cc1nc(N)ccc1CNC(=O)[C@H](C)NC(=O)[C@H]1C[C@H](Cc2csc(Cl)c2)CN1` [compound 1461, (2R,4S)—N—((S)-1-(((6-Amino-2-methylpyridin-3-yl)methyl)amino)-1-oxopropan-2-yl)-4-((5-chlorothiophen-3-yl)methyl)pyrrolidine-2-carboxamide Dihydrochloride], the inhibitory constant (Ki) in test [1] was < 500 nM; in test [2] (Thrombin Ki (μM)) it was 0.5 to 2.5 µM; in test [3] (read-out: MASP-2 Ki), < 500 nM. For the same compound, the “MASP-2 vs. thrombin selectivity” value in test [3] was “**** (≥100-fold)”.

`C[C@H](NC(=O)[C@H]1C[C@H](c2ccccc2)CN1)C(=O)NCc1cc(Br)cc2cn[nH]c12` [compound 1462, (2R,4R)—N—((S)-1-(((5-bromo-1H-indazol-7-yl)methyl)amino)-1-oxopropan-2-yl)-4-phenylpyrrolidine-2-carboxamide]: the figures for the Ki in test [1], in test [2] (Thrombin Ki (μM)) and in test [3] were 2500 to 10000 nM, 10 to 25 µM and 500 to 2500 nM, respectively. Moreover, the “MASP-2 vs. thrombin selectivity” value in test [3] was “** (≥5.0 to <25-fold)”.

On to `C[C@H](NC(=O)[C@H]1C[C@H](c2ccccc2)CN1)C(=O)NCc1cc2cnccc2[nH]1` [compound 1463, (2R,4R)—N—((S)-1-(((1H-Pyrrolo[3,2-c]pyridin-2-yl)methyl)amino)-1-oxopropan-2-yl)-4-phenylpyrrolidine-2-carboxamide Di-trifluoroacetate salt], for which the Ki is < 500 nM in test [1], > 25 µM in test [2] (read-out: Thrombin Ki) and < 500 nM in test [3] (read-out: MASP-2 Ki).

Consider `CCN1C[C@@H](Cc2ccc(Cl)c(Br)c2)C[C@@H]1C(=O)N[C@@H](C)C(=O)NCc1ccc(N)nc1C` [compound 1464, (2R,4S)—N—((S)-1-(((6-Amino-2-methylpyridin-3-yl)methyl)amino)-1-oxopropan-2-yl)-4-(3-bromo-4-chlorobenzyl)-1-ethylpyrrolidine-2-carboxamide], for which the Ki in test [1] is < 500 nM; in test [2] (read-out: Thrombin Ki), > 25 µM; in test [3] (read-out: MASP-2 Ki) it was < 500 nM.

Take `Cc1nc(N)ccc1CNC(=O)[C@@H]1CCCN1C(=O)[C@H]1C[C@H](Cc2ccc(Br)cc2)CN1` [compound 1465, (S)—N-((6-Amino-2-methylpyridin-3-yl)methyl)-1-((2R,4S)-4-(4-bromobenzyl)pyrrolidine-2-carbonyl)pyrrolidine-2-carboxamide Di-trifluoroacetate salt]: the Ki is 500 to 2500 nM in test [1], < 0.5 µM in test [2] (read-out: Thrombin Ki) and < 500 nM in test [3] (read-out: MASP-2 Ki). Also, in test [3], the “MASP-2 vs. thrombin selectivity” value is recorded as “* (≥1.0 to <5.0-fold)”.

Regarding `Cc1nc(N)ccc1CNC(=O)[C@H](C)NC(=O)[C@H]1C[C@H](Cc2ccc(Br)c(Cl)c2)CN1` [compound 1466, (2R,4S)—N—((S)-1-(((6-Amino-2-methylpyridin-3-yl)methyl)amino)-1-oxopropan-2-yl)-4-(4-bromo-3-chlorobenzyl)pyrrolidine-2-carboxamide Di-trifluoroacetate salt], the Ki in test [1] is < 500 nM; in test [2] (Thrombin Ki (μM)), 10 to 25 µM; in test [3] (read-out: MASP-2 Ki) it was < 500 nM. Also, the “MASP-2 vs. thrombin selectivity” value in test [3] was “**** (≥100-fold)”.

With `Cc1nc(N)ccc1CNC(=O)[C@H](C)NC(=O)c1cc(Cc2ccccc2)c[nH]1` [compound 1467, (S)—N-(1-(((6-Amino-2-methylpyridin-3-yl)methyl)amino)-1-oxopropan-2-yl)-4-benzyl-1H-pyrrole-2-carboxamide trifluoroacetic acid], the figures for the Ki in test [1], in test [2] (read-out: Thrombin Ki) and in test [3] (read-out: MASP-2 Ki) were 500 to 2500 nM, > 25 µM and < 500 nM, respectively. Further, the “MASP-2 vs. thrombin selectivity” value in test [3] is listed as “**** (≥100-fold)”.

On to `Cc1cc(C[C@@H]2CN[C@@H](C(=O)N[C@@H](C)C(=O)NCc3cnc4c(c3)c(Cl)cn4C)C2)ccn1` [compound 1468, Trifluoroacetate], for which the Ki is < 500 nM in test [1], > 25 µM in test [2] (read-out: Thrombin Ki) and < 500 nM in test [3] (read-out: MASP-2 Ki). For the same compound, in test [3], the “MASP-2 vs. thrombin selectivity” value was “**** (≥100-fold)”.

As to `Cc1cc(C[C@@H]2CN[C@@H](C(=O)N[C@@H](C)C(=O)NCc3ccc(N)nc3C)C2)ccn1` [compound 1469, (2R,4S)—N—((S)-1-(((6-Amino-2-methylpyridin-3-yl)methyl)amino)-1-oxopropan-2-yl)-4-((2-methylpyridin-4-yl)methyl)pyrrolidine-2-carboxamide Dihydrochloride], the Ki in test [1] is < 500 nM; in test [2] (Thrombin Ki (μM)), 2.5 to 10 µM; in test [3] (read-out: MASP-2 Ki) it was < 500 nM. In test [3], the “MASP-2 vs. thrombin selectivity” value is on record as “**** (≥100-fold)”.

As for `Cc1nc(N)ccc1CNC(=O)[C@H](C)NC(=O)[C@H]1C[C@H](Cc2ccc3nonc3c2)CN1` [compound 1470, (2R,4S)—N—((S)-1-(((6-Amino-2-methylpyridin-3-yl)methyl)amino)-1-oxopropan-2-yl)-4-(benzo[c][1,2,5]oxadiazol-5-ylmethyl)pyrrolidine-2-carboxamide Di-trifluoroacetate salt], the Ki in test [1] was < 500 nM; in test [2] (Thrombin Ki (μM)), 2.5 to 10 µM; in test [3] (read-out: MASP-2 Ki), < 500 nM. Further, in test [3], the “MASP-2 vs. thrombin selectivity” value is on record as “**** (≥100-fold)”.

As for `C[C@H](NC(=O)[C@H]1C[C@H](c2ccccc2)CN1)C(=O)NCc1cnc2sccc2c1` [compound 1471, (2R,4R)—N—((S)-1-oxo-1-((Thieno[2,3-b]pyridin-5-ylmethyl)amino)propan-2-yl)-4-phenylpyrrolidine-2-carboxamide Trifluoroacetate salt], the Ki was 2500 to 10000 nM in test [1], > 25 µM in test [2] (read-out: Thrombin Ki) and 2500 to 10000 nM in test [3].

`C[C@H](NC(=O)[C@H]1C[C@H](Cc2ccccc2)CN1)C(=O)NCc1cc2cnccc2[nH]1` [compound 1472, (2R,4S)—N—((S)-1-(((1H-Pyrrolo[3,2-c]pyridin-2-yl)methyl)amino)-1-oxopropan-2-yl)-4-benzylpyrrolidine-2-carboxamide Di-trifluoroacetate salt]: the Ki in test [1] is < 500 nM; in test [2] (Thrombin Ki (μM)) it was 2.5 to 10 µM; in test [3] (read-out: MASP-2 Ki), < 500 nM. Also, the “MASP-2 vs. thrombin selectivity” value in test [3] is listed as “**** (≥100-fold)”.

As to `Cc1nc(N)ccc1CNC(=O)[C@H](C)NC(=O)[C@H]1C[C@H](Cc2ccc(F)c(Cl)c2)CN1CCC(=O)O` [compound 1473, 3-((2R,4S)-2-(((S)-1-(((6-Amino-2-methylpyridin-3-yl)methyl)amino)-1-oxopropan-2-yl)carbamoyl)-4-(3-chloro-4-fluorobenzyl)pyrrolidin-1-yl)propanoic acid Trifluoroacetate salt], the values for the Ki in test [1], in test [2] (read-out: Thrombin Ki) and in test [3] (read-out: MASP-2 Ki) were < 500 nM, > 25 µM and < 500 nM, respectively.

As for `C[C@H](NC(=O)[C@H]1C[C@H](Cc2ccc(F)c(Cl)c2)CN1)C(=O)NCc1cnc2c(c1)c(Cl)cn2C` [compound 1474, (2R,4S)—N—((S)-1-(((3-Chloro-1-methyl-1H-pyrrolo[2,3-b]pyridin-5-yl)methyl)amino)-1-oxopropan-2-yl)-4-(3-chloro-4-fluorobenzyl)pyrrolidine-2-carboxamide Trifluoroacetate salt], the Ki in test [1] was < 500 nM; in test [2] (read-out: Thrombin Ki), > 25 µM; in test [3] (read-out: MASP-2 Ki) it was < 500 nM. Moreover, in test [3], the “MASP-2 vs. thrombin selectivity” value was “**** (≥100-fold)”.
